Several values for one entry are separate records, joined by “and”; a condition that tells them apart may be missing. Identical values can stand only once.
System: 379773-124-R-J2-PDC complex spheroids, viability % test/control
Assay: Anticancer human tumor 379773-124-R-J2-PDC patient-derived endometrial carcinoma cell line growth inhibition [CLK]
Details: for viability, T/C: stronger effect = lower value
From the text: A high-throughput screen of multi-cell type tumor spheroids was designed to identify active combinations of […] and targeted small molecules. Complex spheroids include a stromal component modeled by human endothelial cells (HUVEC) and fibroblasts modeled by human mesenchymal stem cells (MSCs). The concentration ranges selected for each drug and investigational agent were based upon clinically achievable concentrations if the clinical Cmax of the agent was known.
Compounds. The drugs and investigational agents: cirtuvivint (SM08502; NSC835563), CC-671 (NSC850746), vemurafenib (NSC761431), tapotoclax (NSC804041), sotorasib (NSC818433), adagrasib (NSC831453), MRTX-1133 (NSC836407), BAY2416964 (NSC825713), copanlisib (NSC816437), inavolisib (NSC800729), abemaciclib (NSC768073), osimertinib (NSC779217), entinostat (NSC756642), eltanexor (KPT-8602, NSC794443), venetoclax (NSC766270), ceralasertib (NSC777638), bortezomib (NSC756655), olaparib (NSC753686), talazoparib (NSC767125), alisertib (NSC759677), peposertib (NSC802822), gemcitabine (NSC613327), 5-fluorouracil (NSC19893), SN-38 (NSC673596), oxaliplatin (NSC266046), paclitaxel (NSC125973), and doxorubicin (NSC123127), were obtained from the National Cancer Institute (NCI) Developmental Therapeutics Program Chemical Repository. The FDA-approved anticancer drug set is available from the Developmental Therapeutics Program at https://dtp.cancer.gov/organization/dscb/obtaining/available plates.htm. […] The stock solutions were prepared in dimethyl sulfoxide (DMSO, Sigma-Aldrich, St. Louis, MO, cat. D2650), except for the platinum complexes which were prepared in saline (Quality Biological, Gaithersburg, MD, cat. 114-055-101), at 800-fold the tested concentration and stored at -70 degrees C prior to their use. All drugs and investigational agents were tested over a range starting from a high concentration at or near the clinical Cmax and decreasing in half-log increments. If the clinical Cmax for an agent had not been determined, the highest concentration tested was 10 microM.
Cell Culture. All cells were maintained in an incubator at 37 degrees C and 5% CO2 with 95% humidity. The PDC lines were cultured according to standard operating procedures established by the NCI PDMR. Briefly, all PDCs were thawed and cultured in Matrigel-coated flasks prepared with a working solution of 1X Ham's F-12 nutrient mix, without supplementation (Invitrogen, Waltham, MA, cat. 11765054), 100 U/mL penicillin-streptomycin (Invitrogen, cat. 15140122), and 2.5% Matrigel (Corning Inc., Corning, NY, cat. 354248) for the first three passages. The 947758-054-R-J2-PDC line was cultured in 6B/Colon 1A media, which includes advanced DMEM/F-12 (Thermo Fisher Scientific, cat. 12634028), 10 mM HEPES (Thermo Fisher Scientific, cat. 15630080), 1X GlutaMAX supplement (Thermo Fisher Scientific, cat. 35050061), 0.1 mg/mL primocin (InvivoGen, cat. ant-pm-2), 10% defined fetal bovine serum, heat inactivated (HyClone Laboratories Inc., cat. SH30070.03HI), 1.25 mM N-Acetyl-L-cysteine (Sigma-Aldrich, cat. A9165), 10 mM nicotinamide (Sigma-Aldrich, cat. N0636), 1X B-27 supplement (Thermo Fisher Scientific, cat. 17504044), 1X N-2 supplement (Thermo Fisher Scientific, cat. 17502048), and 10 microM Y-27632 dihydrochloride (Tocris Bioscience, cat. 1254). The 876862-298-R-J1-PDC was cultured in 6E media, which includes all 6B/Colon 1A media components plus 50% L-WRN conditioned media (ATCC, cat. CRL-3276), 50 ng/mL recombinant human EGF recombinant protein (hEGF; Thermo Fisher Scientific, cat. PHG0311), 10 ng/mL recombinant human fibroblast growth factor 10 (hGFG-10; PeproTech, cat. 100-26), 1 ng/mL recombinant human fibroblast growth factor 2 (hFGF-2; PeproTech, cat. 100-18B), and 1 µM prostaglandin E2 (PGE2; Tocris, cat. 2296). The 227483-062-R1-J1-PDC line was cultured in Panc media, containing all 6E components except hFGF-2, with the addition of 500 nM SB-431542 (Selleckchem, cat. S1067) and 10 nM gastrin (Tocris, cat. 3006). […]
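Note: compound exposure lasted seven days before the viability readout.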
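Throughout, for viability, T/C: 100% = DMSO vehicle control wells.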

IC50 (curve of compound)	IC50 (compound alone, run of 09/18/2023)	IC50 (compound alone, run of 09/19/2023)	SMILES	viability, T/C (compound 0.00316 µM)	viability, T/C (compound 0.01 µM)	viability, T/C (compound 0.0316 µM)	viability, T/C (compound 0.1 µM)	viability, T/C (compound 0.316 µM)	viability, T/C (compound 1 µM)	viability, T/C (compound 3.16 µM)	viability, T/C (compound 10 µM)	viability, T/C (compound 0.000316 µM)	viability, T/C (compound 0.001 µM)	viability, T/C (compound 0.00949 µM)	viability, T/C (compound 0.03 µM)	viability, T/C (compound 0.0949 µM)	viability, T/C (compound 0.3 µM)	viability, T/C (compound 0.949 µM)	viability, T/C (compound 3 µM)
< 3.16 nM			CCc1c2c(nc3ccc(O)cc13)-c1cc3c(c(=O)n1C2)COC(=O)[C@]3(O)CC	24.2% and 20.4%	8.01% and 6.62%	5.03% and 4.19%	2.77% and 1.93%	0.94% and 0.86%	0.57% and 0.46%										
5210 nM			COC1C=CCC(C)C(C)S(=O)(=O)NC(=O)c2ccc3c(c2)N(CC2CCC21)CC1(CCCc2cc(Cl)ccc21)CO3 (stereo unspecified)			96.5% and 98.1%	91.1% and 82%	98.4% and 83.7%	98.3% and 78.7%	84.1% and 88.6%	5.48% and 2.76%								
72.6 nM and 45.9 nM			NC(=O)C(=Cn1cnc(-c2cc(C(F)(F)F)cc(C(F)(F)F)c2)n1)c1cncnc1											83.8% and 85.3%	74.8% and 59.7%	41.1% and 33.7%	19.5% and 14.4%	13.9% and 7.66%	4.42% and 2.99%
3020 nM and 2860 nM			Nc1ccccc1NC(=O)c1ccc(CNC(=O)OCc2cccnc2)cc1			108% and 92.4%	100% and 89.7%	95.6% and 104%	102% and 96.7%	47.8% and 45.6%	8.85% and 7.74%								
> 10000 nM			O=c1[nH]cc(F)c(=O)[nH]1			90.7% and 97.5%	107% and 93.2%	91.5% and 98.6%	97.5% and 100%	70.2% and 81.4%	50.9% and 73.7%								

More lines, now with the values behind:

SMILES	IC50 (curve of compound)	IC50 (compound alone, run of 09/18/2023)	IC50 (compound alone, run of 09/19/2023)	viability, T/C (compound 0.00316 µM)	viability, T/C (compound 0.01 µM)	viability, T/C (compound 0.0316 µM)	viability, T/C (compound 0.1 µM)	viability, T/C (compound 0.316 µM)	viability, T/C (compound 1 µM)	viability, T/C (compound 3.16 µM)	viability, T/C (compound 10 µM)	viability, T/C (compound 0.000316 µM)	viability, T/C (compound 0.001 µM)	viability, T/C (compound 0.00949 µM)	viability, T/C (compound 0.03 µM)	viability, T/C (compound 0.0949 µM)	viability, T/C (compound 0.3 µM)	viability, T/C (compound 0.949 µM)	viability, T/C (compound 3 µM)
CN1CCN(c2cc(C(=O)Nc3cc4cc(-c5cnn(C)c5)ccc4cn3)ccn2)CC1		199 nM [middle of 12 runs]				95.6% [middle of 12 runs]		28.3% [middle of 12 runs]	0.33% [middle of 10 runs]	0.29% [middle of 9 runs]	0.22% [middle of 9 runs]								
CNC(=O)c1ccc(Nc2nc(OC3CCCC3)c3c(-c4ccc5nc(C)oc5c4)c[nH]c3n2)c(OC)c1			75.8 nM [middle of 12 runs]			82.9% [middle of 12 runs]	39.7% [middle of 12 runs]	39% [middle of 12 runs]	32.1% [middle of 12 runs]	35.5% [middle of 12 runs]	33.9% [middle of 12 runs]								
COc1c(OCCCN2CCOCC2)ccc2c3n(c(=NC(=O)c4cnc(N)nc4)nc12)CCN3	78.7 nM and 58.8 nM			85.3% and 98.5%	91.9% and 72.6%	73.5% and 69.3%	43.4% and 40.3%	15.3% and 12.2%	4.52% and 3.3%										
Cn1ncnc1[C@H]1c2n[nH]c(=O)c3cc(F)cc(c23)N[C@@H]1c1ccc(F)cc1	67.6 nM and 30.5 nM			86.3% and 79.5%	86.8% and 79.1%	72.3% and 49%	38.9% and 26.1%					97.3% and 82.2%	100% and 79.8%						
Nc1ccn(C2OC(CO)C(O)C2(F)F)c(=O)n1 (stereo unspecified)	< 31.6 nM					6.4% and 4.58%	5.3% and 4.24%	6.69% and 3.96%	5.77% and 4.69%	4.84% and 3.97%	3.93% and 3.21%								
O=C(c1cc(Cc2n[nH]c(=O)c3ccccc23)ccc1F)N1CCN(C(=O)C2CC2)CC1	> 10000 nM					83.1% and 108%	89% and 86.6%	89.2% and 84.2%	89.5% and 80.5%	81.5% and 78.6%	56.1% and 47%								

Reference: PubChem BioAssay AID2060604 (Molecular Pharmacology Branch, DTP, NCI, 2025)
